Experimental data published in patent US20130202586A1, “STEM CELL THERAPY USING INHIBITORS OF LYSOPHOSPHATIDIC ACID” (priority 2011, published 2013).

Key:
[1] = test system: adult mouse NSC; test: Neuronal differentiation of adult mouse NSC; format: cell-based
Source text: However, and similarly to data obtained in human NSC, LPA inhibited the neuronal differentiation of adult mouse NSC by maintaining them as NSC when plated in conditions normally inducing neuronal differentiation. […] These effects were independent of apoptosis or proliferation.

[2] = test system: plated neurospheres (human NSC); settings: 10 μM LPA, Dottori et al.; cited from earlier work
[3] = test system: noggin-treated cells (human NSC); settings: 10 μM LPA, 11-14 days, Dottori et al.; cited from earlier work
[4] = test system: plated neurospheres (human NSC); test: Neuronal differentiation: neuron-forming neurospheres; format: cell-based
Experimental: (§1) Neurospheres were formed and cultured as described in Dottori, M. et al. (2008), supra. Briefly, human embryonic stem cells (HES-2, HES-3, and HES-4, WiCell Research Institute, Madison Wis.) were cultured according to previously published methods. Neuronal induction using noggin was performed according to published methods and after growth and subculture, cells were grown as neurospheres in the presence of growth factors. Neurospheres could be plated on dishes coated with laminin or fibronectin. When plated onto laminin and cultured with neural basal medium (NBM, R&D Systems, Minneapolis Minn.), neurospheres typically differentiate into neurons. Quantitation of neuron-forming spheres (a measure of neuronal differentiation) was done by counting the number of neurospheres from which neuronal outgrowth was visible.
[…] […] Dilutions of LPA were made in 0.1% fatty acid-free bovine serum albumin (final concentration 0.01% BSA).
The effect of LPA on an additional differentiation step, the differentiation of NSC toward mature cells, was also measured. When plated on laminin in NBM, neurospheres typically differentiate into neurons, as assayed by visible neurons, elongated cell shape and/or positive staining for β-tubulin.
Using the same conditions used in Example 2 for LPA treatment alone, plated neurospheres were treated with 10 μM LPA alone, or with anti-LPA antibody B3 or B7 (1 mg/ml) alone, or with 10 μM LPA in combination with 1 mg/ml of antibody B3 or B7. Similarly, cells were treated with 10 μM LPA alone, humanized anti-LPA antibody LT3015 alone (1 mg/ml) or with 10 μM LPA in combination with 1 mg/ml LT3015. The percent of neuron-forming neurospheres was quantitated as in Example 2 (beta-tubulin staining and quantification of neuron-forming spheres, as described in Dottori, et al (2008)). […] Neurosphere samples treated with B3 antibody alone had neuron-forming neurospheres equivalent to control (100%). […] The antibody B7, under similar conditions, had little to no effect in this experiment (37.00±5.31% of control). […]

[5] = test system: noggin-treated cells (human NSC); test: Neurosphere formation from noggin-treated human embryonic stem cells; format: cell-based; settings: 5-7 days
Experimental: as §1
Plated neurospheres were incubated in the presence or absence of LPA (Sigma Aldrich, St. Louis, Mo.) and/or antibody (concentrations shown) for 5 days. Dilutions of LPA were made in 0.1% fatty acid-free bovine serum albumin (final concentration 0.01% BSA).
As shown by Dottori et al., LPA inhibits the ability of NSC to form neurospheres, even in the presence of bFGF and EGF. […] […] Dottori, M. et al. (2008), supra. […]

Question: With lysophosphatidic acid [LPA] as the substance, how does the “neurosphere formation or growth of mouse NSC” value [1] read?
Answer: did not modify neurosphere formation or growth

Question: What about the “nestin positive, % of total cells” value ([1]; LPA 10 μM, three days) of the same substance?
Answer: 87.55±3.20%

Question: What about the “βIII-tubulin expression, % of total cells” value ([1]; LPA 10 μM, three days) of the same substance?
Answer: 26.25±2.08%

Question: And the “neuronal cells from plated neurospheres” value [2]?
Answer: did not give rise to neuronal cells

Question: What about the “% of cultures formed neurospheres” value [3] of the same substance?
Answer: 13.47%±6.94

Question: And the “neuron-forming neurospheres, % of untreated control” value ([4]; Example 4, 10 μM LPA alone)?
Answer: approximately 25.00±6.45%

Question: What about the “neuron-forming spheres, % of control” value ([4]; Example 5, 3 days, 10 μM LPA alone) of the same substance?
Answer: approximately 26%

Question: What about the “neuron-forming neurospheres, pool of data” value ([4]; LPA alone) of the same substance?
Answer: 25.00±6.45%

Question: And the “% neurosphere formation” value ([5]; 10 μM LPA)?
Answer: 13.500±5.590%

Question: What about the “% neurosphere formation” value ([5]; LPA at 1 μM) of the same substance?
Answer: 50±12.50%
